The text below walks through data of publication PMC7076388 (Pharmaceutics, 2020).

pIC50: −log10 of the molar value. “Also recorded” adds a separate entry of the source.

The target in series [1] is T1, 26S proteasome isolated from AGS cells (Homo sapiens, UniProt P28074).
T1 construct: purified 26S proteasome isolated from AGS cells; endogenous in cells; host or cells: AGS cells
T1 sequence (P28074 60-263): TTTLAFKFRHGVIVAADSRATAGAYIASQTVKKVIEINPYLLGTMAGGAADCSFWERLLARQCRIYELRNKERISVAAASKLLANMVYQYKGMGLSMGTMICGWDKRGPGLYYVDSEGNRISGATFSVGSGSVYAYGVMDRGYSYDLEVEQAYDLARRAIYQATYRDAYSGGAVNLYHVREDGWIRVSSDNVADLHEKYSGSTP
Nature of the series: 26S proteasome inhibition. In kind it is biochemical. Here is the method: This assay was carried out in the same way as described for 20S proteasome (vide supra), except using purified 26S proteasome isolated from AGS cells. To extract 26S proteasome from cells, they were centrifuged at 1300 rpm for 3 min at 37 °C and the supernatant was rejected. The pellet was then resuspended in 5 mL of HBSS. After this step, the cells were centrifuged again under the conditions referred to above and the supernatant was rejected. Then, 1 mL of cell lysis buffer was added, before being placed in ice (4 °C) for 30 min. Subsequently, the mixture was centrifuged at 14,000 g during 30 min at 4 °C. The pellet was rejected, and the supernatant was kept in an Eppendorf tube. The quantity of protein isolated was determined by Bradford Assay.
A stock solution of bovine serum albumin (BSA) (1.0 mg/mL) was prepared in H2O. From the stock solution, six concentrations were prepared: 5%, 4%, 3%, 2%, 1% and 0% stock solution in H2O. An aliquot of each sample (40 µL) was added to a solution of the Bradford reagent (200 µL). After 5 min, the absorbance was measured at 595 nm and the calibration curve was plotted (correlation > 0.99). […] After 5 min, the absorbance was measured at 595 nm and the result was compared with the correlation curve in order to calculate the concentration of protein.

In a further series the test system is RAW 264.7 cells. Also on record: method as in PMID 30987203. The following applies: up to 100 µM, 24 h, MTT; cited from earlier work.
For series [2], the system named is LPS-induced •NO production in RAW 264.7 cells. The following applies: cited from earlier work.
The target of series [3] is T2, LOX from glycine max (soybean) (Glycine max, UniProt P08170).
T2 construct: purchased Sigma-Aldrich
T2 sequence (P08170 1-839): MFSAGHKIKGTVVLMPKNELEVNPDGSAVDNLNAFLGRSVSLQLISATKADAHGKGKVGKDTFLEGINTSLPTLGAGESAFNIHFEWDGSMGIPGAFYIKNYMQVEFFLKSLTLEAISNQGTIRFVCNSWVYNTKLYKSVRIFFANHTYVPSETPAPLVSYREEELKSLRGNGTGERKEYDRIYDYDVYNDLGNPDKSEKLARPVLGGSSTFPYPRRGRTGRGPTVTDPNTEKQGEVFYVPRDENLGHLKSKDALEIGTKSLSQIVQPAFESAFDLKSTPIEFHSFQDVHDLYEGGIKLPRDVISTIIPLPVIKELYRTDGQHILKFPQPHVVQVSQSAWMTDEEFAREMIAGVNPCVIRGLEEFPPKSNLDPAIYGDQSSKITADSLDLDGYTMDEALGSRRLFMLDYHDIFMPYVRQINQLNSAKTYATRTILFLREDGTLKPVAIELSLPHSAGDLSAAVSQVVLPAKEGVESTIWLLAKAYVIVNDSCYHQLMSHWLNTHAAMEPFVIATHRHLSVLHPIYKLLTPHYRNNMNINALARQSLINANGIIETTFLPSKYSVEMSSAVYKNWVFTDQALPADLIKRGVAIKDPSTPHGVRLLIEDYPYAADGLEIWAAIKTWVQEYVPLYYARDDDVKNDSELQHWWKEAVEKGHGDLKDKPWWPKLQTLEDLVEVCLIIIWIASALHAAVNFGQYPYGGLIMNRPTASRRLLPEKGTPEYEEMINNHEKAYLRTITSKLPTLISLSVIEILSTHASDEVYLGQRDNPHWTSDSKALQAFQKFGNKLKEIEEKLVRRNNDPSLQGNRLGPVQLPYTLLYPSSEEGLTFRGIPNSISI
Also on record: method as in PMID 30987203. The following applies: 100 µM; cited from earlier work.

The next series addresses T3, COX-2 (Homo sapiens, UniProt P35354).
T3 construct: purchased Cayman Chemical
T3 sequence (P35354 18-604): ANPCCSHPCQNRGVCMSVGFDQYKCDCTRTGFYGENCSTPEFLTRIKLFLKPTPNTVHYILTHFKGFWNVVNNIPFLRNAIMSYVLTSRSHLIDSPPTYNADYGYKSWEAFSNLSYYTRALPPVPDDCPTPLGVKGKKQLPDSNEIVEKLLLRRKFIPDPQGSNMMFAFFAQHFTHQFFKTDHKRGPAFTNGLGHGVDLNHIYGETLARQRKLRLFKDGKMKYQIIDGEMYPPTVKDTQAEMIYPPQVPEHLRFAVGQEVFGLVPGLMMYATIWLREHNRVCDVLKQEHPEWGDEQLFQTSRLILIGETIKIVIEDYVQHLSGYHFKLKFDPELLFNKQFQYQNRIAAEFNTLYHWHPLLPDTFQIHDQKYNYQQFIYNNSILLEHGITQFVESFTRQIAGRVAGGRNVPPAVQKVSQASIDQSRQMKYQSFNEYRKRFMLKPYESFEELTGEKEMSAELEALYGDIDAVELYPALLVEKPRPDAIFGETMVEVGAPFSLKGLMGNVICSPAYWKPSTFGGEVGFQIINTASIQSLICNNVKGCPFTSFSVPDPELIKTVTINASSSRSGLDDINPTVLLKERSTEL
Also on record: method as in PMID 30987203. The following applies: 25 µM; low selectivity towards COX-2; cited from earlier work.

For series [4], the target named is 20S proteasome isolated from erythrocytes (Homo sapiens, UniProt P28074). Nature of the series: 20S proteasome inhibition (chymotrypsin-like activity). In kind it is biochemical. Also on record: purified 20S proteasome isolated from erythrocytes (Enzo Life Sciences); purchased Enzo Life Sciences; host or cells: erythrocytes. The method, then: Proteasome activity was measured by adapting a method described by Silva et al.. The substrate used to study chymotrypsin-like enzyme activity was Suc-Leu-Leu-Val-Tyr-AMC and the enzyme used was purified 20S proteasome isolated from erythrocytes (Enzo Life Sciences). […] The plate was incubated at 37 °C in the dark for 2 h. […] Lactacystin was used as positive control.

The pIC50 is the negative decadic logarithm of the IC50, by convention in mol/L. One may read the remaining activity as the activity still measured, relative to the control. Regarding `COc1ccc2cc(C(C)C(=O)NC(Cc3ccc(O)cc3)C(=O)NC(=Cc3ccccc3)C(=O)O)ccc2c1` [Compound 1, Npx-L-Tyr-Z-ΔPhe-OH], the “26S proteasome activity versus control” value in series [1] (100 µM) was 8.1%. The pIC50 in series [1] (dose-response assay) is 4.73; in series [2] (previously reported, read-out: IC50 (LPS-dependent •NO production)), 4.10; in series [4] (dose-response assay), 4.51. In addition, in the series with RAW 264.7 cells, the “cytotoxic effect on RAW 264.7 viability” value was “did not show any statistically significant cytotoxic effects”. In addition, the “inhibition of LPS-induced production of •NO” value in series [2] (preliminary study) is reported as “modest ability to inhibit”. In series [3], the “LOX inhibition at single concentration” value is “significantly inhibit the LOX enzyme to a similar level to naproxen; also recorded: high levels of lipoxygenase (LOX) inhibition”. At COX-2, the “COX inhibition level (COX-2)” value is “modest levels of COX inhibition”. Moreover, in series [4] (100 µM, read-out: 20S proteasome enzyme activity remaining), the remaining activity at 100 µM amounted to 11%.
